By melting point is commonly meant the temperature of the solid-liquid transition.

Structures are written as SMILES.

The record followed here is patent publication US7964531B2, “3-phenoxy-4-pyridazinol derivatives and herbicidal composition containing the same” (Mitsui Chemicals Agro, Inc., priority 2001, dated 2011).

The subject of data set [1] is Cyperus serotinus. The data set is described as follows: Test Example 1: herbicidal effects, paddy-field pot test. The data set is classed as in vivo. To be noted: wettable powder applied 3 days after transplanting, judged after 25 days. On the procedure:
(§1) A paddy soil was filled in 1/10,000 are pot, and seeds of barnyardgrass (Echinochloa oryzicola Vasing.), Scirpus joncoides and annual broad-leaved weeds (Lindernia spp., Rotala indica) which are awaken from dormancy were mixed at the surface layer of 1 cm. Also, tuber of Cyperus serotinus which is germinated was planted, and further seedlings of paddy-field rice at 2.2-leaf stage were transplanted, and they were grown under the flooded condition in a greenhouse. After 3 days from transplanting, a predetermined chemical dosage of the wettable powder prepared in accordance with Preparation example 1 was diluted in water, and the solution was applied to the pot and herbicidal effects and crop injury against transplanted paddy-field rice were judged after 25 days from the treatment. Also, 3-(2-allylphenoxy)-6-chloro-4-methoxypyridazine described in Chemical Pharmaceutical Bulletin, 1972, vol. 20, No. 10, pp. 2191-2203 was used as Comparative compound. Incidentally, herbicidal effects and crop injury against transplanted paddy-field rice were judged by the following judgment standard, and “-” in the table means no test was carried out.
(§2) Judgment Standard • 0: Growth inhibition rate; 0 to 10% • 1: Growth inhibition rate; 11 to 30% • 2: Growth inhibition rate; 31 to 50% • 3: Growth inhibition rate; 51 to 70% • 4: Growth inhibition rate; 71 to 90% • 5: Growth inhibition rate; 91 to 100%.

For data set [2], the system named is annual broad-leaved weeds (Lindernia spp., Rotala indica). Described as above. The format is in vivo. To be noted: wettable powder applied 3 days after transplanting, judged after 25 days. Here is the method: as §1, §2
For data set [3], the system named is barnyardgrass (Echinochloa oryzicola Vasing.). Described as above. The format is in vivo. To be noted: wettable powder applied 3 days after transplanting, judged after 25 days. On the procedure: as §1, §2
In data set [4] the test system is transplanted paddy-field rice. The data set is described as follows: Test Example 1: crop injury against transplanted paddy-field rice. The data set is classed as in vivo. To be noted: wettable powder applied 3 days after transplanting, judged after 25 days. On the procedure:
as §1, §2

Data set [5] has as its system Scirpus joncoides. The data set is described as follows: Test Example 1: herbicidal effects, paddy-field pot test. The format is in vivo. To be noted: wettable powder applied 3 days after transplanting, judged after 25 days. Here is the method: as §1, §2

The compound `Cc1cccc(C2CC2)c1Oc1nnc(Cl)cc1OC(=O)C(C)(C)CCl` [Compound No. 2703, 6-Chloro-3-(2-cyclopropyl-6-methylphenoxy)-4-pyridazinyl 3-chloro-2,2-dimethylpropanoate] had a melting point of 112 to 115 °C.

Consider `Cc1ccccc1Oc1nnc(Cl)cc1OC(=O)c1ccccc1C(=O)Oc1cc(Cl)nnc1Oc1ccccc1C` [Compound No. 2827, Bis[6-chloro-3-(2-methylphenoxy)-4-pyridazinyl]phthalate], for which the melting point was in the range of 157 to 158 °C.

`Cc1cccc(C2CC2)c1Oc1nnc(Cl)cc1OC(=O)c1ccc(C(F)(F)F)cc1` [Compound No. 2988, 6-Chloro-3-(2-cyclopropyl-6-methylphenoxy)-4-pyridazinyl 4-(trifluoromethyl)benzoate] registered a melting point of 127 to 128 °C.

`Cc1cccc(C2CC2)c1Oc1nnc(Cl)cc1OC(=O)c1ccc(C(=O)Oc2cc(Cl)nnc2Oc2c(C)cccc2C2CC2)cc1` [Compound No. 3001, Bis[6-chloro-3-(2-cyclopropyl-6-methylphenoxy)-4-pyridazinyl]terephthalate] displayed a melting point of 247 to 249 °C.

`Cc1cccc(C2CC2)c1Oc1nnc(Cl)cc1OC(=O)c1cc(Cl)ccc1Cl` [Compound No. 3100, 6-Chloro-3-(2-cyclopropyl-6-methylphenoxy)-4-pyridazinyl 2,5-dichlorobenzoate] displayed a melting point of 128 to 130 °C.

On to `COc1cccc(OC)c1C(=O)Oc1cc(Cl)nnc1Oc1c(C)cccc1C1CC1` [Compound No. 3162, 6-Chloro-3-(2-cyclopropyl-6-methylphenoxy)-4-pyridazinyl 2,6-dimethoxybenzoate], for which the melting point is 127 to 128 °C.

In turn, `Cc1cccc(C2CC2)c1Oc1nnc(Cl)cc1OC(=O)c1cc(Cl)cc(Cl)c1` [Compound No. 3226, 6-Chloro-3-(2-cyclopropyl-6-methylphenoxy)-4-pyridazinyl 3,5-dichlorobenzoate] showed a melting point of 168 to 174 °C.

On to `Cc1cc(C)cc(C(=O)Oc2cc(Cl)nnc2Oc2c(C)cccc2C2CC2)c1` [Compound No. 3243, 6-Chloro-3-(2-cyclopropyl-6-methylphenoxy)-4-pyridazinyl 3,5-dimethylbenzoate], for which the melting point is 117 to 119 °C.

With `Cc1cccc(C2CC2)c1Oc1nnc(Cl)cc1OC(=O)c1cccn1C` [Compound No. 3282, 6-Chloro-3-(2-cyclopropyl-6-methylphenoxy)-4-pyridazinyl 1-methyl-1H-pyrrole-2-carboxylate], the melting point was in the range of 143 to 144 °C.

As to `COc1cscc1C(=O)Oc1cc(Cl)nnc1Oc1c(C)cccc1C1CC1` [Compound No. 3378, 6-Chloro-3-(2-cyclopropyl-6-methylphenoxy)-4-pyridazinyl 4-methoxy-3-thiophenecarboxylate], the melting point fell in the range of 146 to 149 °C.

The compound `Cc1cccc(C2CC2)c1Oc1nnc(Cl)cc1OC(=O)c1cnccc1C(F)(F)F` [Compound No. 3462, 6-Chloro-3-(2-cyclopropyl-6-methylphenoxy)-4-pyridazinyl 4-(trifluoromethyl)nicotinate] registered a melting point of 92 to 93 °C.

In the case of `Cc1cccc(C2CC2)c1Oc1nnc(Cl)cc1OC(=O)c1cc2ccccc2s1` [Compound No. 3504, 6-Chloro-3-(2-cyclopropyl-6-methylphenoxy)-4-pyridazinyl 1-benzothiophene-2-carboxylate], the melting point fell in the range of 105 to 107 °C.

`Cc1cccc(C2CC2)c1Oc1nnc(Cl)cc1OC(=O)n1c(C)ccc1C` [Compound No. 3630, 6-Chloro-3-(2-cyclopropyl-6-methylphenoxy)-4-pyridazinyl 2,5-dimethyl-1H-pyrrole-1-carboxylate] displayed a melting point of 208 to 210 °C.

In turn, `Cc1cccc(C2CC2)c1Oc1nnc(Cl)cc1OC(=O)n1c2ccccc2c2ccccc21` [Compound No. 3714, 6-Chloro-3-(2-cyclopropyl-6-methylphenoxy)-4-pyridazinyl 9H-carbazole-9-carboxylate] displayed a melting point of 157 to 159 °C.

Consider `Cc1cc(OC(=O)c2ccccc2)ccc1Oc1nnc(Cl)cc1OC(=O)c1ccccc1` [Compound No. 3850, 4-{[4-(Benzoyloxy)-6-chloro-3-pyridazinyl]oxy}-3-methylphenyl benzoate], for which the melting point fell in the range of 118 to 120 °C.

On to `Oc1cc(Cl)nnc1Oc1cccc2c1CC1CC21` (centres unmarked) [Example 15], for which the “Herbicidal effects Cyperus serotinus” value in data set [1] (chemical dosage 10 g/a) is 5 (Growth inhibition rate; 91 to 100%). The “Herbicidal effects Broad leaf” value in data set [2] (chemical dosage 10 g/a) is given as 5 (Growth inhibition rate; 91 to 100%). In data set [3] (chemical dosage 10 g/a), the “Herbicidal effects Barnyard grass” value is on record as 1 (Growth inhibition rate; 11 to 30%). Moreover, the “Crop injury against transplanted rice” value in data set [4] (chemical dosage 10 g/a) is listed as 0 (Growth inhibition rate; 0 to 10%).

For `Cc1ccc(Oc2nnc(Cl)cc2O)c(C2CC2)c1` [Example 202], the “Herbicidal effects Cyperus serotinus” value in data set [1] (chemical dosage 10 g/a) was 4 (Growth inhibition rate; 71 to 90%). Further, the “Herbicidal effects Broad leaf” value in data set [2] (chemical dosage 10 g/a) is recorded as 5 (Growth inhibition rate; 91 to 100%). In data set [3] (chemical dosage 10 g/a), the “Herbicidal effects Barnyard grass” value was 2 (Growth inhibition rate; 31 to 50%). The “Crop injury against transplanted rice” value in data set [4] (chemical dosage 10 g/a) is recorded as 0 (Growth inhibition rate; 0 to 10%).

For the compound `CCc1ccc(C2CC2)c(Oc2nnc(Cl)cc2O)c1` [Example 219], the “Herbicidal effects Scirpus joncoides” value in data set [5] (chemical dosage 10 g/a) and in data set [5] (chemical dosage 20 g/a) was 5 (Growth inhibition rate; 91 to 100%) each time. For the same compound, the “Herbicidal effects Broad leaf” value in data set [2] (chemical dosage 10 g/a) and in data set [2] (chemical dosage 20 g/a) was 5 (Growth inhibition rate; 91 to 100%) in each case. Also, the “Herbicidal effects Barnyard grass” value was 3 (Growth inhibition rate; 51 to 70%) in data set [3] (chemical dosage 10 g/a) and 4 (Growth inhibition rate; 71 to 90%) in data set [3] (chemical dosage 20 g/a). In addition, the “Crop injury against transplanted rice” value in data set [4] (chemical dosage 10 g/a) and in data set [4] (chemical dosage 20 g/a) was 0 (Growth inhibition rate; 0 to 10%) each time.

As for `Oc1cc(Cl)nnc1Oc1c(Br)cccc1Br` [Example 248], the “Herbicidal effects Cyperus serotinus” value in data set [1] (chemical dosage 5 g/a) and in data set [1] (chemical dosage 10 g/a) was 5 (Growth inhibition rate; 91 to 100%) each time. Besides, the “Herbicidal effects Broad leaf” value in data set [2] (chemical dosage 5 g/a) and in data set [2] (chemical dosage 10 g/a) was 5 (Growth inhibition rate; 91 to 100%) in each case. Besides, the “Herbicidal effects Barnyard grass” value is 1 (Growth inhibition rate; 11 to 30%) in data set [3] (chemical dosage 5 g/a) and 3 (Growth inhibition rate; 51 to 70%) in data set [3] (chemical dosage 10 g/a). The “Crop injury against transplanted rice” value in data set [4] (chemical dosage 5 g/a) and in data set [4] (chemical dosage 10 g/a) was 0 (Growth inhibition rate; 0 to 10%) throughout.

For the compound `CC(C)c1cccc(I)c1Oc1nnc(Cl)cc1O` [Example 258], the “Herbicidal effects Broad leaf” value in data set [2] (chemical dosage 10 g/a) is 5 (Growth inhibition rate; 91 to 100%). Besides, the “Herbicidal effects Barnyard grass” value in data set [3] (chemical dosage 10 g/a) is on record as 3 (Growth inhibition rate; 51 to 70%). Further, the “Crop injury against transplanted rice” value in data set [4] (chemical dosage 10 g/a) was 0 (Growth inhibition rate; 0 to 10%).

As to `Oc1cc(Cl)nnc1Oc1c(F)cc(C2CC2)cc1C1CC1` [Example 313], the “Herbicidal effects Broad leaf” value in data set [2] (chemical dosage 20 g/a) is on record as 5 (Growth inhibition rate; 91 to 100%). Further, the “Herbicidal effects Barnyard grass” value in data set [3] (chemical dosage 20 g/a) was 1 (Growth inhibition rate; 11 to 30%). In addition, in data set [4] (chemical dosage 20 g/a), the “Crop injury against transplanted rice” value was 0 (Growth inhibition rate; 0 to 10%).

As for `Cc1cc(C)c(Oc2nnc(Cl)cc2O)c(Br)c1` [Example 315], the “Herbicidal effects Cyperus serotinus” value in data set [1] (chemical dosage 20 g/a) is given as 5 (Growth inhibition rate; 91 to 100%). The “Herbicidal effects Broad leaf” value in data set [2] (chemical dosage 20 g/a) is listed as 5 (Growth inhibition rate; 91 to 100%). For the same compound, the “Herbicidal effects Barnyard grass” value in data set [3] (chemical dosage 20 g/a) is listed as 4 (Growth inhibition rate; 71 to 90%). Further, the “Crop injury against transplanted rice” value in data set [4] (chemical dosage 20 g/a) is 0 (Growth inhibition rate; 0 to 10%).

In the case of `CCc1cc(I)cc(I)c1Oc1nnc(Cl)cc1O` [Example 316], the “Herbicidal effects Broad leaf” value in data set [2] (chemical dosage 10 g/a) and in data set [2] (chemical dosage 20 g/a) was 5 (Growth inhibition rate; 91 to 100%) in each case. The “Herbicidal effects Barnyard grass” value in data set [3] (chemical dosage 10 g/a) was 2 (Growth inhibition rate; 31 to 50%); in data set [3] (chemical dosage 20 g/a), 3 (Growth inhibition rate; 51 to 70%). Moreover, the “Crop injury against transplanted rice” value in data set [4] (chemical dosage 10 g/a) and in data set [4] (chemical dosage 20 g/a) was 0 (Growth inhibition rate; 0 to 10%) in each case.

In the case of `CN(C)C(=O)Oc1cc(Cl)nnc1Oc1ccccc1C1CC1` [Example 352], in data set [5] (chemical dosage 20 g/a), the “Herbicidal effects Scirpus joncoides” value was 5 (Growth inhibition rate; 91 to 100%). In data set [2] (chemical dosage 20 g/a), the “Herbicidal effects Broad leaf” value was 5 (Growth inhibition rate; 91 to 100%). In data set [3] (chemical dosage 20 g/a), the “Herbicidal effects Barnyard grass” value is listed as 4 (Growth inhibition rate; 71 to 90%). In addition, in data set [4] (chemical dosage 20 g/a), the “Crop injury against transplanted rice” value was 0 (Growth inhibition rate; 0 to 10%).
